Test results reported in EPA's ToxValDB 9.5.
“And” between values parts separate entries of the source, which are not always exact repeats. Identical values can stand only once.

Experiments:
[1] = tested on: Canidae; conditions: oral, Dog Other
[2] = tested on: Rattus norvegicus; conditions: chronic; duration: 104 weeks; oral; diet; Liver: Increased weight
[3] = tested on: Canidae; conditions: oral, diet, M/F, Dog Other
[4] = tested on: Rattus norvegicus; conditions: chronic; duration: 2 years; oral; gavage; M/F; kidney pathology
[5] = tested on: Rattus norvegicus; conditions: for LEL: uterotrophic, Active
[6] = tested on: Mus musculus; conditions: chronic; duration: 103 weeks; oral; gavage; M/F; B6C3F1; hepatic
[7] = tested on: Rattus norvegicus; conditions: oral
[8] = tested on: Canidae; conditions: oral, capsule, Beagle; for LOEL: duration: 14 months, Re-emergence of haemolytic anaemia; for NOEL: duration: 3 months, Atrophic change in prostate
[9] = tested on: Canidae; conditions: oral, Beagle
[10] = tested on: Mus musculus; conditions: acute; oral; NMRI
[11] = tested on: Oryctolagus sp.; conditions: acute, New Zealand
[12] = tested on: Rattus norvegicus
[13] = tested on: Mus musculus; conditions: uterotrophic, Active
[14] = tested on: Rattus norvegicus; conditions: repeat dose other; oral
[15] = chronic, duration: 2 years, increased serum alkaline phosphatase and liver weight, and hepatic lesions
[16] = chronic, duration: 12 months, increase in methemoglobin + Increased liver weights
[17] = Hershberger, duration: 10 days, oral, gavage, Sprague-Dawley, active + Negative + Antiandrogenic + anti-androgenic + DP and LABC decreased in high dose
[18] = duration: 7 days, injection, subcutaneous
[19] = duration: 3 days, injection, subcutaneous

Q: What does the source list for `CC(COc1ccc(C(C)(C)C)cc1)OS(=O)OCCCl` (stereo unspecified) [Aramite]?
A: NOAEL ([1]; chronic, duration: 52 weeks, diet, Liver: Degeneration): 10 mg/kg-day; NOAEL [2]: 7.8 mg/kg-day

Q: For `CC1=CC(=O)CC(C)(C)C1` [Isophorone], which NOEL ([3]; subchronic, duration: 90 days, no effects) is on record?
A: 150 mg/kg-day

Q: And the LEL [4]?
A: 250 mg/kg-day

Q: And the NOEL ([1]; subchronic, duration: 90 days, capsule, Kidney: Lesions)?
A: 150 mg/kg-day

Q: What about the NOEL ([5]; Hershberger, duration: 10 days, oral, gavage, Sprague-Dawley, inactive + Negative + Negative + neither + increase age at PPS, decrease wt of SV, decrease testosterone at 800 / NS increase in liver wt …) of the same compound?
A: 200 mg/kg-day

Q: What about the LOAEL [6] of the same compound?
A: 179 mg/kg-day

Q: And the NOAEL ([7]; subchronic, duration: 90 days, diet, F, other)?
A: 312 mg/kg-day

Q: How did the NOAEL ([8]; chronic, duration: 1 years, M/F, Minimal to slight peripheral nerve changes & focal skeletal muscle degeneration) turn out when `CC[C@@H](C(=O)O)[C@@H]1O[C@@H]([C@@H](C)[C@H](O)[C@H](C)C(=O)[C@H](CC)[C@H]2O[C@]3(C=C[C@@H](O)[C@]4(CC[C@@](C)([C@H]5CC[C@](O)(CC)[C@H](C)O5)O4)O3)[C@H](C)C[C@@H]2C)[C@@H](C)C[C@@H]1C` [Narasin] was run?
A: 0.5 mg/kg-day

Q: Which results are given for `CC(O)CN(CC(C)O)c1nc(Nc2ccc(S(=O)(=O)[O-])cc2)nc(Nc2ccc(/C=C/c3ccc(Nc4nc(Nc5ccc(S(=O)(=O)[O-])cc5)nc(N(CC(C)O)CC(C)O)n4)cc3S(=O)(=O)[O-])c(S(=O)(=O)[O-])c2)n1.[Na+].[Na+].[Na+].[Na+]` (stereo unspecified)?
A: LC50 ([9]; acute): > 500 mg/kg; LC50 [10]: > 1000 mg/kg; LC50 ([11]; oral): > 1000 mg/kg; LD50 ([12]; acute, oral, Wistar): > 2500 mg/kg; NOAEL ([12]; short-term, duration: 5 days, oral, gavage, F, Wistar): 1020 mg/kg-day; NOAEL ([12]; short-term, duration: 5 days, oral, gavage, M, Wistar): 1020 mg/kg-day; NOAEL ([12]; subchronic, duration: 13 weeks, oral, gavage, F, Wistar): 300 mg/kg-day; NOAEL ([12]; subchronic, duration: 13 weeks, oral, gavage, M, Wistar): 300 mg/kg-day

Q: What does the source list for `Cl.c1ccc([C@H]2CN3CCSC3=N2)cc1` [Levamisole hydrochloride]?
A: LOEL ([8]; chronic): 1.25 mg/kg-day; LOEL ([8]; immunotoxicology): 1.25 mg/kg-day

Q: How did the NOEL ([1]; chronic, duration: 1 years, diet, Blood: Altered clinical chemistry parameters + Blood: Increased platelet count + Whole body: Decreased weight) turn out when `CCNc1nc(Cl)nc(NC(C)(C)C#N)n1` [Cyanazine] was run?
A: 0.625 mg/kg-day

Q: For `CCC(CC)Nc1c([N+](=O)[O-])cc(C)c(C)c1[N+](=O)[O-]` [Pendimethalin], which LEL [3, 15] is on record?
A: 50 mg/kg-day

Q: What about the NOEL [3, 15] of the same compound?
A: 12.5 mg/kg-day

Q: And the NOEL ([1]; chronic, duration: 2 years, capsule, Liver: Effects)?
A: 12.5 mg/kg-day

Q: What about the LEL ([5]; duration: 3 days, oral) of the same compound?
A: 300 mg/kg-day

Q: What does the source list for `CCCN(CCC)c1c([N+](=O)[O-])cc(C(F)(F)F)cc1[N+](=O)[O-]` [Trifluralin]?
A: LEL [3, 16]: 3.75 mg/kg-day; NOEL [3, 16]: 0.75 mg/kg-day; NOEL ([1]; chronic, duration: 12 months, diet, Blood: Methemoglobinemia + Liver: Increased weight): 0.75 mg/kg-day; LOEL [5, 17]: 250 mg/kg-day and 450 mg/kg-day; NOEL [5, 17]: 75 mg/kg-day and 150 mg/kg-day

Q: Which LOAEL ([9]; chronic, duration: 130 days) does the source give for `CC(C)CC(C)(O)C#CC(C)(O)CC(C)C` (stereo unspecified) [2,4,7,9-Tetramethyl-5-decyne-4,7-diol] here?
A: 200 mg/kg-day

Q: And the LD50 ([11]; dermal, occlusive)?
A: > 1000 mg/kg

Q: What about the LC50 ([12]; acute, Inhalation) of the same compound?
A: > 20 µg/mL

Q: And the LD50 ([12]; acute, dermal)?
A: > 2000 mg/kg

Q: What about the LD50 ([12]; acute, oral, Sprague-Dawley) of the same compound?
A: > 500 mg/kg

Q: And the NOAEL ([12]; reproduction developmental, oral, diet, Sprague-Dawley, generation: F0)?
A: 500 mg/kg-day

Q: What about the NOAEL ([12]; reproduction developmental, oral, diet, Sprague-Dawley, generation: F1) of the same compound?
A: 500 mg/kg-day

Q: And the NOAEL ([12]; short-term, duration: 28 days, oral, diet)?
A: 5000 ppm

Q: `O=C(c1ccc(O)cc1O)c1ccc(O)cc1O` [2,2',4,4'-Tetrahydroxybenzophenone] was tested. Which LEL [13, 18] did it give?
A: 300 mg/kg-day

Q: What about the LEL ([13]; duration: 7 days, oral) of the same compound?
A: 1000 mg/kg-day

Q: And the LEL [5, 19]?
A: 100 mg/kg-day and 200 mg/kg-day and 230 mg/kg-day

Q: What about the LEL ([5]; duration: 5 days, oral) of the same compound?
A: 100 mg/kg-day and 250 mg/kg-day

Q: And the LEL ([5]; duration: 90 days, oral, diet)?
A: 185 mg/kg-day

Q: How did the LOAEL [14] turn out when `O=C1C2(Cl)C3(Cl)C4(Cl)C(Cl)(Cl)C5(Cl)C3(Cl)C1(Cl)C5(Cl)C24Cl` (stereo unspecified) [Kepone] was run?
A: 0.4 mg/kg-day

Q: And the NOAEL [14]?
A: 0.08 mg/kg-day

Q: What about the LEL [13, 19] of the same compound?
A: 1 mg/kg-day

Q: What about the LEL ([5]; duration: 1 days, injection, subcutaneous) of the same compound?
A: 10 mg/kg-day

Q: What about the LEL ([5]; duration: 2 days, injection, subcutaneous) of the same compound?
A: 0.2 mg/day

Q: And the LEL [5, 19]?
A: 15 mg/kg-day and 20 mg/kg-day and 30 mg/kg-day

Q: And the NOAEL ([7]; chronic, duration: 2 years, diet, M/F, Wistar, renal)?
A: 0.089 mg/kg-day

Q: What about the NOAEL ([7]; short-term, duration: 10 days, gavage, M, Fischer 344, neurological) of the same compound?
A: 1.25 mg/kg-day

Q: What about the NOAEL ([7]; subchronic, duration: 90 days, diet, M, Sprague-Dawley, neurological, reproductive) of the same compound?
A: 0.26 mg/kg-day

Q: Which NOEL ([8]; M/F) does the source give for `COC(=O)Nc1nc2ccc(C(=O)c3ccc(F)cc3)cc2[nH]1` [Flubendazole] here?
A: 2.5 mg/kg-day

Q: What about the NOEL ([8]; subchronic, M/F) of the same compound?
A: 2.5 mg/kg-day

Q: How did the LEL [13, 18] turn out when `O=C(c1ccccc1)c1ccc(O)cc1O` [2,4-Dihydroxybenzophenone] was run?
A: 300 mg/kg-day

Q: What about the LEL ([13]; duration: 7 days, oral) of the same compound?
A: 1000 mg/kg-day

Q: What about the LEL ([5]; duration: 3 days, injection, intraperitoneal) of the same compound?
A: 500 mg/kg-day
